Reference: US5407927A, “Treatment of mild depression and restoration of IGF-I levels in aging by dehydroepiandrosterone” (The Regents of the University of California, priority 1993, dated 1995)
Where two headings read alike, the source gives them in different places.

Assays:
Format in all cases: in vivo, human
[1] = Serum DHEA and DHEAS levels during oral DHEA (immunoassay)
Protocol: FIG. 1: DHEAS and DHEA serum levels in men and women at baseline, 2 and 12 weeks of DHEA (50 mg) administration and 2 weeks after discontinuation. The horizontal solid line represents mean level during the second decade of life.
(§1) Seventeen women and 13 men ages 40-70 in good medical health were enrolled in a clinical trial of DHEA replacement of 6 months duration. The trial was structured as a double-blind randomized placebo-controlled crossover study. […] These subjects were seen monthly and received 50 mg DHEA orally, nightly for 3 months and placebo for 3 months.
(§2) Blood specimens were drawn from all subjects in the study at baseline (time 0) and at 2 weeks and 12 weeks after DHEA administration, and at 2 weeks after DHEA administration was discontinued. DHEA, DHEAS, androstenedione, testosterone, dihydrotestosterone, and the sex hormone binding globulin were all measured by immunoassay as described by Anderson, D.C., et al. Steroid, 1976, 28:179.
(§3) Serum levels of testosterone, androstenedione, and dihydrotestosterone, as well as the sex-hormone binding globulin are shown in FIG. 2.

[2] = system: testosterone, androstenedione, and dihydrotestosterone; test: Serum androgen levels during oral DHEA (immunoassay); details: 50 mg DHEA orally, nightly
Protocol: (§4) FIG. 2: Hormonal levels during DHEA (50 mg) therapy (represented by stippled area) in men and women. ADIONE (androstenedione); TEST (testosterone); DHT(dihydrotestosterone); SHBG(sex-hormone binding globulin). The shaded area represents the duration of DHEA treatment.
as §1, §2, §3

[3] = system: sex-hormone binding globulin; test: Serum sex-hormone binding globulin during oral DHEA (immunoassay); details: 50 mg DHEA orally, nightly
Protocol: as §4, §1, §2, §3

[4] = Body composition (% body fat by bioelectric impedance, BMI); details: DHEA 50 mg orally, nightly, 3 months, mean ± standard error
Protocol: The term "BMI" means body mass index which is body weight (kg)/height (m^2).
as §1
(§5) Insulin sensitivity and glucose effectiveness were measured by euglycemic hyperinsulinemic clamp (Bergman, R.N. J. Clin. Invest., 1987, 79:790-800) and rapid intravenous glucose tolerance test (Bergman, R.N., et al. Amer. J. Physiol., 1979, 236:667-677) and % body fat as measured by bioelectric impedance (Lukaski, H. Amer. J. Nutrition, 1987, 46:537) were measured on all patients after DHEA of placebo treatment. The glucose disposal rate was also measured using Bergman, 1987 (supra).

[5] = Glucose metabolism (euglycemic hyperinsulinemic clamp, rapid intravenous glucose tolerance test); details: DHEA 50 mg orally, nightly, 3 months, mean ± standard error
Protocol: as §1, §5

[6] = Serum cholesterol, triglycerides, HDL and LDL (standard enzymatic methods); details: for CHOLESTEROL / HDL / LDL / TG: DHEA (50 mg) × 3 months, mean ± standard error
Protocol: as §1
(§6) Serum cholesterol, triglycerides, apolipoproteins A1 and B, and the HDL and LDL lipoproteins were measured on all serum specimens. Cholesterol, triglycerides, HDL and LDL were measured by standard enzymatic methods. (Allain, C.A., et al., Clin. Chem. 1974, 20:470.) Apolipoproteins were measured by immunoassay methods. Immunoassay methods for measurement of apolipoproteins are described in the literature. […] All other lipid or lipoprotein levels were unchanged by the DHEA administration.

[7] = Serum apolipoproteins (immunoassay); details: DHEA (50 mg) × 3 months, mean ± standard error
Protocol: as §1, §6

[8] = Sense of well-being or mood-elevating effect (question to subjects); details: DHEA 50 mg, 3 months
Protocol: as §1
Sense of well-being or mood-elevating effect was reported in response to a question: "Have you noted any effect, good or bad during this treatment?
(§7) Libido was self-reported by the patients and scored on a visual analog scale. Subjects were evaluated at the end at the 3 month period of DHEA or placebo treatment.

[9] = Self-reported libido (visual analog scale); details: end of 3 month DHEA period
Protocol: as §1, §7

[10] = system: insulin-like growth factor I (IGF-I); test: Serum insulin-like growth factor I (immunoassay); details: DHEA 50 mg, 3 months
Protocol: (§8) Blood specimens are drawn from patients immediately prior to the onset of DHEA administration and preferentially at 30 days after the beginning of treatment and at periodic intervals thereafter determined by the treating physician. Serum IGF-I and IGF BP-I levels are determined by immunoassay on these blood specimens. There are a variety of immunoassay methods available for determination of IGF-I and IGF BP-I which are reported in the literature and which are known to those of skill in the art. (Breier, B.H., et al., J. of Endocrinol., 1991, 128:347-357 and Pekonen, F. et al. J. Immunoassay, 1989, 10:325-337.
as §1
(§9) Insulin-like growth factor I and insulin-like growth factor binding protein I were measured in serum specimens by immunoassay as described previously.

[11] = system: insulin-like growth factor binding protein I (IGF BP-I); test: Serum insulin-like growth factor binding protein I (immunoassay); details: DHEA 50 mg, 3 months
Protocol: as §8, §1, §9

[12] = Pharmacokinetic study comparing oral and sublingual administration of DHEA; details: for Tmax: human, serum, read-out: time to peak levels of DHEA
Protocol: FIG. 5: Hormonal levels in men and women after oral 50 mg DHEA (.cndot. and sublingual 50 mg. DHEA (.smallcircle. ).
A pharmacokinetic study comparing oral and sublingual administration of DHEA was performed on the men and women subjects. DHEA, DHEAS, androstenedione, testosterone and dihydrotestosterone were measured by the immunoassay methods described above on serum specimens drawn at 30 minutes, 1 hour, 2 hours, 4 hours, 5 hours and 8 hours after dose administration. […] Peak levels of DHEA were achieved within 30 minutes with the sublingual route and 3 hours with the oral route.

[13] = Side effects and safety parameters (physical exams, hematology, chemistry) in clinical trial; details: 17 women and 13 men ages 40-70; 50 mg orally, nightly, 3 months
Protocol: as §1

## C[C@]12CC[C@H](O)CC1=CC[C@@H]1[C@@H]2CC[C@]2(C)C(=O)CC[C@@H]12 [DHEA, dehydroepiandrosterone]
[1]; adults 40-80 years old, 50 to 100 mg orally or sublingually daily, FIG. 1
  blood levels of DHEA: in the physiological range for younger adults
[1]; men and women, 50 mg DHEA orally, nightly, three month trial
  DHEAS serum levels (maintenance): maintained throughout the three month trial
[1]; men and women, 50 mg DHEA orally, nightly, within 2 weeks of administration
  DHEAS serum levels (rise): rose to those levels seen in the second decade of life within 2 weeks of administration
[1]; men and women, after discontinuing 50 mg DHEA
  time for DHEAS levels to return to baseline after discontinuing DHEA: ≤ 2 weeks
[2]; men
  androgens, particularly dihydrotestosterone and estrogens: no changes in any androgens
[2]; women
  androgen levels (testosterone, androstenedione, dihydrotestosterone): doubling of their androgen levels
[3]
  Sex-hormone binding globulin level: a trend of decline but this decline was not statistically significant
[4]; men
  % FAT: 21.9 ± 1.3%
  BMI: 27.0 ± 0.7 kg/m^2
[4]; women
  % FAT: 31.3 ± 1.0%
  BMI: 24.7 ± 0.7 kg/m^2
[5]; men
  GLUCOSE DISPOSAL RATE: 7.64 ± 0.056 mg/kg/min
  GLUCOSE EFFECTIVENESS: 0.019 ± 0.001 min⁻¹
  INSULIN SENSITIVITY: 3.69 ± 0.5 × 10^-4 min^-1 uU^-1 ml
[5]; women
  GLUCOSE EFFECTIVENESS: 0.024 ± 0.002 min⁻¹
  INSULIN SENSITIVITY: 2.90 ± 0.4 × 10^-4 min^-1 uU^-1 ml
[6]; men
  CHOLESTEROL: 209.9 ± 9.4
  HDL: 44.8 ± 1.7
  LDL: 147.5 ± 8.5
  TG: 107.7 ± 10.5
[6]; women and men, DHEA 50 mg, 3 months
  all other lipid or lipoprotein levels (change, in words): unchanged
[6]; women, DHEA 50 mg, 3 months
  HDL levels (change, in words): Only a small reduction in HDL levels were seen in women
[6]; women
  CHOLESTEROL: 218.3 ± 6.9
  HDL: 63.4 ± 2.7
  LDL: 136.0 ± 4.9
  TG: 94.2 ± 7.4
[7]; men
  APO A1: 167.4 ± 6.1
  APO B: 149.8 ± 8.5
[7]; women
  APO A1: 213.7 ± 8.1
  APO B: 137.4 ± 5.9
[8]; majority of both men and women, in retrospect
  mood-elevating effect: An impressive mood-elevating effect was noted in retrospect by the majority of both men and women
[8]; men and women
  responses to question on effect noted during treatment: "sleeping better" "better ability to handle stress" "more relaxed", "easier time falling asleep", "more energy" and "better moods"
[9]
  self-reported libido: no difference was seen while subjects were on DHEA
[10]; men and women
  IGF-I (change, in words): statistically significant elevation
[10]; men and women, inferred from IGF-I and IGF BP-I
  free IGF-I (change, in words): overall increase in free IGF-I
[10]; men
  IGF-I increase: 10%
[10]; women
  IGF-I increase: 12%
[11]; men and women
  IGF BP-I (change, in words): decrease
[11]; men
  IGF BP-I decrease: 12%
[11]; women
  IGF BP-I decrease: 22%
[12]; 50 mg, men and women
  rate of absorption, sublingual versus oral: absorbed most rapidly sublingually
[12]; oral 50 mg
  Tmax: ≤ 3 h
[12]; sublingual 50 mg
  Tmax: ≤ 0.5 h
[13]
  Safety parameters (physical exams, hematology, chemistry): all within normal limits
  side effects: No side effects were reported
